Data taken from US8173600B2, “Caspase-2 inhibitors and their biological applications” (Chiesi Farmaceutici S.p.A., priority 2004, dated 2012).
Read-outs that look alike come from different tables or passages of the source. Peptide text beside a SMILES is read from it. * marks the point of attachment. X1 = COC(=O)C[C@H](N*)C(=O)COc1c(F)cccc1F; Quinaldoyl = O=C(c1ccc2ccccc2n1)*

How the values were obtained:
primary cortical neurons = test system: primary cortical neurons
Procedure: Primary cortical neurons were cultured from E14 SWISS mice embryos (Janvier). Mice were sacrificed by cervical dislocation and embryos were removed by caesarean. Cerebral cortices were extracted and tissues mechanically triturated 15 times in L15 medium (Gibco BRL) by using 1000 μl tips (Eppendorf), then debris were removed, and the cell suspension was centrifuged at 850 rpm for 10 min. […]
5.1.3 Apoptosis assays. Analysis was performed on previously stained adherent neurons by fluorescence microscopy (FM) (DM IRB inverted fluorescence microscope, Leica, Rueil-malmaison, France) equipped with a 100 W mercury short arc lamp and a X 40 N PLAN L objective or a water immersion X 100 N PLAN objective. Usually, quantitative studies were performed by both FM on approximately 200-600 cells/field by scoring 5-10 random-selected fields per experiment and flow cytometry (FC) for higher sample throughput. […] Activated caspase-2 was detected using specific FAM-conjugated peptides (called FLICA: CaspaTag™ fluorescein Caspase Activity Kits, Q-Biogen, Illkirch, France; ApoFluor™ Caspase Detection Kits, MP BioMedicals): FAM-VDVAD (SEQ ID NO:9)-fmk. Viability loss was assessed by 7-AAD (Sigma) incorporation.

[1] = test system: 32 others related-proteases or enzymes involved in signal transduction and neuronal metabolism, nitric oxide pathway or prostanglandin metabolism; conditions: 1 μM, n=2
[2] = after freeze/thawing of aqueous solution
Text: Stability was followed throughout 7 days at RT or after freeze/thawing of aqueous solution comprising various 10-100% of excipients by using HPLC (Varian ProStar 410 equipped of Nucleosile C18 (8 μm, 3.9×150 mm) with detection at 214 nm).

[3] = test system: neonatal ischemic brain injury
caspase-2 = caspase-2 (Rattus norvegicus, UniProt P55215); conditions: 5 mg/kg i.p., sacrificed at 24 hrs, brain homogenates
Sequence of caspase-2 (P55215 whole entry): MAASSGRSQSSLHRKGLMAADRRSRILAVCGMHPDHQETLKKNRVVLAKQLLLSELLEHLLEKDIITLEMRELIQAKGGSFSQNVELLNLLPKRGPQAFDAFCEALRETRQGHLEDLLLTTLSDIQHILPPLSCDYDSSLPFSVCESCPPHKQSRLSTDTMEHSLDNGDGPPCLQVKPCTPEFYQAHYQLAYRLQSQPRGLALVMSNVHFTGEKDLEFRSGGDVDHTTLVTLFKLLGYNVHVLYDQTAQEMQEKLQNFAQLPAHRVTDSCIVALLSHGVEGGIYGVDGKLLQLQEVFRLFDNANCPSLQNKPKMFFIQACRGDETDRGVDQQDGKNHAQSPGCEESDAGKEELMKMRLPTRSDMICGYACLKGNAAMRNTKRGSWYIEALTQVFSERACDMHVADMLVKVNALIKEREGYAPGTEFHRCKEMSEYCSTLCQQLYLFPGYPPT
Procedure: Brain hemispheres were lysed in 10 mM Hepes, 5 mM MgCl2, 42 mM KCl, 1 mM DTT, 0.5% CHAPS supplemented by complete protease inhibitors cocktail (Roche, Meylan, France) by using a manual potter on ice. Homogenates were centrifuged at 10000 g/4° C. for 10 min before keeping surnageant. Protein concentration was determined using BCA test. Proteins (50 μg) were separated on 12.5% polyacrylamide gels and transferred to PVDF membranes (Amersham). […] The monoclonal anti-mouse caspase-2 antibody (52 kDa; 11B4, Alexis Biochemicals) was used at a 1:1000 dilution; actin (42 kDa; Sigma; antibody diluted 1:5000) is used as an equal loading control.
Caspase-2 activity (100 μg protein brain sample) was assessed in 100 μl assay buffer (50 mM HEPES, pH 7.4, 100 mM NaCl, 0.1% CHAPS, 10 mM DTT, 1 mM EDTA, 10% glycerol). The cleavage of 50 μM VDVAD(SEQ ID NO:9)-AMC by recombinant caspase-2 was measured after 2 h at 37° C. on a fluorescence microplate reader by monitoring the fluorescence emission at 510 nm upon excitation at 405 nm.
Animals were sacrified at 24 hrs. Brain homogenates were subjected to caspase-2 activity assay and western blot analysis. IL: ipsilateral injured hemisphere, CL: contralateral unlesionned hemisphere.

[4] = test system: global cerebral ischemia (4VO); conditions: icv, 72 h post-ischemia
Procedure: Global cerebral ischemia was induced by four-vessel occlusion (4VO) according a Pulsinelli's derived method (Pulsinelli et al., 1982; Pulsinelli and Buchman, 1988) in young-adult rats (males Wistar aged of 10-12 weeks, 320 g+/−10 g; Janvier). The first day, head of anesthetised rats was positionned in stereotaxic ear bars and tilted down at approximatively 30° to the horizontal. After a midline incision at the level of cervical spine, both vertebral arteries were exposed under microscope and then coagulated by electocautery needle through the alar foramina at the level of first cervical vertebra. Both common carotides were then exposed 24 h later and clamped for 20-30 min (rats fell in the coma when electrocautherisation of both vertebral arteries have been well performed). Carotid arteries were then declamped to allow blood flow reperfusion. […] Rats were let in their cage with waer et food ad libitum.
Rats were sacrificed and brain fixed by trans-cardiac perfusion with paraformaldehyde. Frontal brain slices (25 μm) were strained by Cresyl-Violet or co-stained by Hoechst 33342 and Fluorojade B to assess cell death in the hippocampus and in the cortex. […] Fluoro JadeB (green fluorescence) intake is possible only in cells which have permeable plasma membrane, thus more caracteristic of dying cells. Hoechst 33342 (blue fluorescence) label nuclei all all cells and allows to appreciate nuclear morphology changes during cell death.
Cells were counted at the level of canula, as well as 650 μm and 780 μm after the cannula (antero-posterior axis) in the left brain hemisphere. Cells are counted in three successives slices at such levels in the hippocampus (CA1, CA3, girus dentus) and cortex. […] Both Fluoro Jade B and Hoechst stained slices were observed under a Leica DMIRB inverted fluorescence microscope equiped with ×40 objective and LEICA IM1000/Qfluorobase software (BP 340-80 excitation filter combined with LP 425 emission filter for Hoechst; BP 480/40 excitation filter combined with BP 515-560 emission filter for Fluoro Jade B).

non-ischemic rats = conditions: rat, in vivo
Procedure: The selective loss of vulnerable cells and Qco-VDVAD-dfp(SEQ ID NO:1)'s effects (intracerebroventricular (ICV) administrated) have been evaluated at 72 h. Rats were sacrificed and brain fixed by trans-cardiac perfusion with paraformaldehyde. Frontal brain slices (25 μm) were strained by Cresyl-Violet or co-stained by Hoechst 33342 and Fluorojade B to assess cell death in the hippocampus and in the cortex. Cresyl-Violet is a pink-red dye that labels cytoplamic body Nissl (endoplasmic reticulum structures) and nuclei in living cells thus resulting in pale or absence of staining in dying cells. Fluoro JadeB (green fluorescence) intake is possible only in cells which have permeable plasma membrane, thus more caracteristic of dying cells. Hoechst 33342 (blue fluorescence) label nuclei all all cells and allows to appreciate nuclear morphology changes during cell death.
Cells were counted at the level of canula, as well as 650 μm and 780 μm after the cannula (antero-posterior axis) in the left brain hemisphere. Cells are counted in three successives slices at such levels in the hippocampus (CA1, CA3, girus dentus) and cortex. Cresyl-Violet stained slices were observed under white light (Nikon Eclipse E 800M microscope equipped with ×40 et ×20 objectives and LEICA IM50 software). […]

[5] = test system: global cerebral ischemia (4VO); conditions: 4VO ischemic treated rats versus untreated rats
Procedure: Corporal temperature was measured during churgical procedure at day 1 (from anesthesia to stepl (vertebral electrocauterisation and cannula putting up) and step 2 (coratid isolation) of chirurgical procedure during. Corporal temperature was also measured 0, 10, 20 minutes after the beginning of ischemia, at day 2. Temperature was measured 24, 48, 72 H post-ischemia and before final anesthesia for perfusion at day 5. Behavioural studies (feeding, spontaneous activity and reactivity) were performed and evaluated by scoring.
Feeding: observation of stomacal contains at day 5
If refeeding=1; If no refeeding=0
Vivacity=1; More or less vivacious=0.5; No or poor vivacity=0.
Reactivity: animal are sensitive and reactive to noise and move to the origin of the noise.
If curious=1; If relatively curious=0.5; If not very curious=0.

COC(=O)C[C@H](NC(=O)[C@H](C)NC(=O)[C@@H](NC(=O)[C@H](CC(=O)OC)NC(=O)[C@@H](NC(=O)c1ccc2ccccc2n1)C(C)C)C(C)C)C(=O)COc1c(F)cccc1F [Qco-VDVAD-dfp, 2-Quinolinylcarbonyl-L-Valinyl-L-Aspartyl (methyl ester)-L-Valinyl-L-Alanyl-L-Aspartyl (methyl ester) 2,6-difluorophenyl ester] (Quinaldoyl-VD(OMe)VA-X1)
caspase-2 activity in serum-deprived cortical neurons (primary cortical neurons; 24 h serum deprivation): prevents caspase-2 activity
cell permeance (primary cortical neurons; inferred from prevention of caspase-2 activity in cortical neuron cultures): cell-permeant
cross reactivity against 32 other related proteases or enzymes [1]: no cross reactivity
degradation after freeze/thawing (HPLC) [2]: No degradation
infarct volume (%), mean ([3]; 0.1 mg/kg i.p. 1 h after MCAO, 48 hrs, control 22.64±1.6%): 9.95±2.8%
reduction in infarct volume ([3]; 0.1 mg/kg i.p. single dose 1 h after MCAO / ischemic onset, 48 hrs, n=19): 44%
infarct volume of the four animals with intermediate protection ([3]; 5 mg/kg i.p. before ischemic onset, 4 of 12 animals): 16.5±1.32%
infarct volume, median of the eight animals with complete protection or very marked smaller infarct ([3]; 5 mg/kg i.p. before ischemic onset, 8 of 12 animals): 0.5%
infarct volume (% damage of ipsilateral hemisphere), mean ([3]; 5 mg/kg i.p. before ischemic onset, 48 hrs, control 22.1±1.4%): 5.7±2.3%
infarct volume, median ([3]; 5 mg/kg i.p. before ischemic onset, all 12 animals, control median=21): 0.5
reduction in infarct volume ([3]; 5 mg/kg i.p. single dose 5-15 min before ischemic onset, 48 hrs, n=12): 74%
terminal transferase dUTP nick end labeling (TUNEL) ([3]; ipsilateral cortex of treated animals): significantly decreased
caspase-2 activity in brain of ischemic rat pups (caspase-2): inhibited caspase-2 activity
caspase-2 processing in brain of ischemic rat pups (western blot) (caspase-2): inhibited caspase-2 activity as well as caspase-2 processing
Cresyl-violet staining intensity in CA1 [4]: partially restored
abnormal nuclei in CA1 (Hoechst) ([4]; versus ischemic rats): less abnormal nuclei
cells incorporating Fluorojade B in CA1 ([4]; ischemic rats 50-60%): 10-20%
cell death in hippocampus or cortex of non-ischemic rats (non-ischemic rats): < 10%
topical toxicity (non-ischemic rats): not topically tokic
general behaviour scoring (feeding, spontaneous activity, reactivity) [5]: better scoring
